Structures can show the parent of a compound that is named as a salt.
Row | Compound | melting point
1 | Cc1ccc2c(c1)Nc1ccccc1N=C2N1CCN(C)[C@@H](CCc2ccccc2)C1 [Example 576, 3-Methyl-11-[4-methyl-(S)-3-phenethyl-piperazin-1-yl]-5H-dibenzo[b,e][1,4]diazepine] | 65 °C (dec.)
2 | Cc1ccc2c(c1)Nc1ccccc1N=C2N1CCN[C@@H](CCc2ccccc2)C1 [Example 575, 3-Methyl-11-[(S)-3-phenethyl-piperazin-1-yl]-5H-dibenzo[b,e][1,4]diazepine] | 64 to 80 °C
3 | CC(C)n1nc2c(n1)C(N1CCN[C@@H](CCc3ccccc3)C1)=Nc1ccccc1N2 (as salt: hydrochloride) (hydrate or solvate) [Example 594, (S)-2-Isopropyl-10-(3-phenethyl-piperazin-1-yl)-2,4-dihydro-1,2,3,4.9-pentaaza-benzo[f]azulene dihydrochloride hemihydrate] | 210 °C
4 | Cc1ccc2c(c1)Nc1ccccc1N=C2N1CCN(C)[C@@H](CCc2cccc(F)c2)C1 [Example 578, 11-{(S)-3-[2-(3-Fluoro-phenyl)-ethyl]-4-methyl-piperazin-1-yl}-3-methyl-5H-dibenzo[b,e][1,4]diazepine] | 63 °C (dec.)
5 | Cc1cc2c(s1)Nc1ccccc1N=C2N1CCN(C)[C@@H](CCc2cccc(Cl)c2)C1 [Example 391, 10-((S)-3-[2-(3-Chloro-phenyl)-ethyl]-4-methyl-piperazin-1-yl)-2-methyl-4H-3-thia-4,9-diaza-benzo[f]azulene] | 69 °C (dec.)
6 | Cc1cc2c(s1)Nc1ccccc1N=C2N1CCN(C)[C@@H](CCc2cccc(F)c2)C1 (as salt: hydrochloride) [Example 183, 10-((S)-3-(2-(3-Fluoro-phenyl)-ethyl)-4-methyl-piperazin-1-yl)-2-methyl-4H-3-thia-4,9-diaza-benzo[f]azulene dihydrochloride] | 225 °C (dec.)
7 | Cc1ccc2c(c1)C(N1CCN[C@@H](CCc3ccccc3)C1)=Nc1ccccc1N2 [Example 580, 2-Methyl-11-[(S)-3-phenethyl-piperazin-1-yl]-5H-dibenzo[b,e][1,4]diazepine] | 67 °C (dec.)
8 | Cc1cc2c(s1)Nc1ccccc1N=C2N1CCN[C@@H](CCc2ccc(Cl)cc2)C1 [Example 388, 10-((S)-3-[2-(4-Chloro-phenyl)-ethyl]-piperazin-1-yl)-2-methyl-4H-3-thia-4,9-diaza-benzo[f]azulene] | 91 °C (dec.)
9 | CC(C)c1ccc2c(c1)C(N1CCN(C)[C@@H](CCc3cccc(F)c3)C1)=Nc1ccccc1N2 (as salt: hydrochloride) | 227 °C
10 | COc1ccc(CC[C@H]2CN(C3=Nc4cc(F)ccc4Nc4sc(C)cc43)CCN2C)cc1.Cl (stereo in doubt) | 180 to 182 °C
11 | COc1ccccc1CC[C@H]1CN(C2=Nc3ccccc3Nc3sc(C)cc32)CCN1C (as salt: hydrochloride) [Example 187, 10-((S)-3-(2-(2-Methoxy-phenyl)-ethyl)-4-methyl-piperazin-1-yl)-2-methyl-4H-3-thia-4,9-diaza-benzo[f]azulene dihydrochloride] | 213 °C (dec.)
12 | Cc1cc2c(s1)Nc1ccccc1N=C2N1CCN[C@@H](CCc2cccc(F)c2)C1 (as salt: hydrochloride) [Example 177, 10-((S)-3-(2-(3-Fluoro-phenyl)-ethyl)-piperazin-1-yl))-2-methyl-4H-3-thia-4,9-diaza-benzo[f]azulene dihydrochloride] | 211 °C (dec.)
13 | Cc1cc2c(s1)Nc1ccccc1N=C2N1CCN[C@@H](CCc2ccccn2)C1 (as salt: hydrochloride) [Example 132] | 220 to 224 °C (dec.)
14 | CC(C)c1nc2c(s1)Nc1ccccc1N=C2N1CCN(C)[C@@H](Cc2ccccc2)C1 (as salt: hydrochloride) [Example 477, (S)-10-(3-Benzyl-4-methyl-piperazin-1-yl)-2-isopropyl-4H-3-thia-1,4,9-triaza-benzo[f]azulene dihydrochloride] | 235 °C
15 | Cc1cc2c(s1)Nc1ccccc1N=C2N1CCN[C@@H](CCc2cccc(C(F)(F)F)c2)C1 [Example 395, 10-((S)-3-[2-(3-Trifluoromethyl-phenyl)-ethyl]-piperazin-1-yl)-2-methyl-4H-3-thia-4,9-diaza-benzo[f]azulene] | 69 °C (dec.)

Next, values leading:

Row | melting point | Compound
16 | 226 to 229 °C (dec.) | Cc1cc2c(s1)Nc1ccccc1N=C2N1CCN[C@@H](CCc2cccnc2)C1 (as salt: hydrochloride) (hydrate or solvate)
17 | 84 °C (dec.) | Cc1ccc2c(c1)Nc1ccccc1N=C2N1CCN(C)CC1 [Example 574, 3-Methyl-11-(4-methyl-piperazin-1-yl)-3-methyl-5H-dibenzo[b,e][1,4]diazepine]
18 | 170 to 177 °C (dec.) | Cc1ccc2c(c1)C(N1CCN(C)CC1)=Nc1ccccc1N2 [Example 579]
19 | 230 °C | Cc1nc2c(s1)Nc1ccccc1N=C2N1CCN(C)[C@@H](CCc2cccc(F)c2)C1 (as salt: hydrochloride) [Example 479, (S)-10-{3-[2-(3-Fluoro-phenyl)-ethyl]-4-methyl-piperazin-1-yl}-2-methyl-4H-3-thia-1,4,9-triaza-benzo[f]azulene dihydrochloride]
20 | 214 to 217 °C (dec.) | Cc1cc2c(s1)Nc1ccccc1N=C2N1CCN(C)[C@@H](CCc2ccncc2)C1 (as salt: hydrochloride) (hydrate or solvate)
21 | 65 °C (dec.) | Cc1ccc2c(c1)C(N1CCN(C)[C@@H](CCc3ccccc3)C1)=Nc1ccccc1N2 [Example 581, 2-Methyl-11-[4-methyl-(S)-3-phenethyl-piperazin-1-yl]-5H-dibenzo[b,e][1,4]diazepine]
22 | 253 °C (dec.) | Cc1cc2c(s1)Nc1ccccc1N=C2N1CCN(C)[C@@H](CCc2ccc(F)cc2)C1 (as salt: hydrochloride) [Example 182, 10-((S)-3-(2-(4-Fluoro-phenyl)-ethyl]-4-methyl-piperazin-1-yl)-2-methyl-4H-3-thia-4,9-diaza-benzo[f]azulene dihydrochloride]
23 | 236 °C (dec.) | Cc1cc2c(s1)Nc1ccccc1N=C2N1CCN[C@@H](CCc2ccc(F)cc2)C1 (as salt: hydrochloride) [Example 176, 10-((S)-3-(2-(4-Fluorophenyl)-ethyl)-piperazin-1-yl)-2-methyl-4H-3-thia-4,9-diaza-benzo[f]azulene dihydrochloride]
24 | 78 °C (dec.) | Cc1cc2c(s1)Nc1ccccc1N=C2N1CCN[C@@H](CCc2ccc(C(F)(F)F)cc2)C1 [Example 393, 10-((S)-3-[2-(4-Trifluoromethyl-phenyl)-ethyl]-piperazin-1-yl)-2-methyl-4H-3-thia-4,9-diaza-benzo[f]azulene]
25 | 72 °C (dec.) | Cc1cc2c(s1)Nc1ccccc1N=C2N1CCN(C)[C@@H](CCc2ccc(C(F)(F)F)cc2)C1 [Example 396, 10-((S)-3-[2-(4-Trifluoromethyl-phenyl)-ethyl]-4-methyl-piperazin-1-yl)-2-methyl-4H-3-thia-4,9-diaza-benzo[f]azulene]
26 | 201 °C (dec.) | COc1cccc(CC[C@H]2CN(C3=Nc4ccccc4Nc4sc(C)cc43)CCN2)c1 (as salt: hydrochloride) [Example 180, 10-((S)-3-(2-(3-Methoxy-phenyl)-ethyl)-piperazin-1-yl)-2-methyl-4H-3-thia-4,9-diaza-benzo[f]azulene dihydrochloride]

Reference: US7214673B2, “Piperazine substituted aryl benzodiazepines and their use as dopamine receptor antagonists for the treatment of psychotic disorders” (Eli Lilly and Company, priority 2002, dated 2007)
